PubChem BioAssay (NCI)
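Assay format: 96-well plates, 48-hour exposure. At the GI50, growth is halved. TGI: concentration producing complete growth inhibition.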

Key:
Test in all cases: NCI tumour cell line growth inhibition, 48 h
MDA-MB-435 = test system: MDA-MB-435
OVCAR-3 ovarian = test system: OVCAR-3 ovarian
LOX IMVI melanoma = test system: LOX IMVI melanoma
PC-3 prostate = test system: PC-3 prostate
SK-MEL-2 melanoma = test system: SK-MEL-2 melanoma
CAKI-1 renal = test system: CAKI-1 renal
COLO 205 colon = test system: COLO 205 colon
SK-MEL-5 melanoma = test system: SK-MEL-5 melanoma
SF-539 CNS = test system: SF-539 CNS
NCI-H23 lung = test system: NCI-H23 lung
UACC-257 melanoma = test system: UACC-257 melanoma
HCC-2998 colon = test system: HCC-2998 colon
BT-549 breast = test system: BT-549 breast
HS 578T breast = test system: HS 578T breast
RPMI-8226 leukemia = test system: RPMI-8226 leukemia
ACHN renal = test system: ACHN renal
NCI-H522 lung = test system: NCI-H522 lung
HL-60(TB) leukemia = test system: HL-60(TB) leukemia
MALME-3M melanoma = test system: MALME-3M melanoma
MDA-MB-468 breast = test system: MDA-MB-468 breast
SW-620 colon = test system: SW-620 colon
786-0 renal = test system: 786-0 renal
MOLT-4 leukemia = test system: MOLT-4 leukemia
EKVX NSCLC = test system: EKVX NSCLC
OVCAR-5 ovarian = test system: OVCAR-5 ovarian
U251 CNS = test system: U251 CNS
HOP-62 NSCLC = test system: HOP-62 NSCLC
HCT-116 colon = test system: HCT-116 colon
MDA-MB-231 breast = test system: MDA-MB-231 breast
SF-268 CNS = test system: SF-268 CNS
SR leukemia = test system: SR leukemia
NCI-H460 lung = test system: NCI-H460 lung
RXF 393 renal = test system: RXF 393 renal
MCF7 breast = test system: MCF7 breast
HCT-15 colon = test system: HCT-15 colon
HOP-92 NSCLC = test system: HOP-92 NSCLC
A549 NSCLC = test system: A549 NSCLC
UACC-62 melanoma = test system: UACC-62 melanoma
SK-OV-3 ovarian = test system: SK-OV-3 ovarian
KM12 colon = test system: KM12 colon
OVCAR-4 ovarian = test system: OVCAR-4 ovarian
TK-10 renal = test system: TK-10 renal
SF-295 CNS = test system: SF-295 CNS
K-562 leukemia = test system: K-562 leukemia
M14 melanoma = test system: M14 melanoma
DU-145 prostate = test system: DU-145 prostate
NCI/ADR-RES ovarian = test system: NCI/ADR-RES ovarian
T-47D breast = test system: T-47D breast
A498 renal = test system: A498 renal
SNB-19 CNS = test system: SNB-19 CNS
SNB-75 CNS = test system: SNB-75 CNS
IGROV1 ovarian = test system: IGROV1 ovarian
NCI-H226 lung = test system: NCI-H226 lung
UO-31 renal = test system: UO-31 renal
SN12C renal = test system: SN12C renal
HT29 colon = test system: HT29 colon
SK-MEL-28 melanoma = test system: SK-MEL-28 melanoma
CCRF-CEM leukemia = test system: CCRF-CEM leukemia
OVCAR-8 ovarian = test system: OVCAR-8 ovarian

In the case of CCOc1ccccc1[C@H]1C(C(=O)c2ccc(Cl)cc2)C2(N[C@@H]1c1ccccc1)C(=O)Nc1ccc(Cl)cc12 (stereo partly drawn), the GI50 (MDA-MB-435) is reported as 13.9 µM, the TGI (MDA-MB-435) is reported as greater than 18.8 µM and the GI50 (OVCAR-3 ovarian) is reported as 7.8 µM. It also gave a TGI (OVCAR-3 ovarian) greater than 18.8 µM, a GI50 (LOX IMVI melanoma) of 9.63 µM and a TGI (LOX IMVI melanoma) greater than 18.8 µM. The GI50 (PC-3 prostate) was 5.51 µM, the TGI (PC-3 prostate) was greater than 18.8 µM and the GI50 (SK-MEL-2 melanoma) was greater than 18.8 µM. The TGI (SK-MEL-2 melanoma) was greater than 18.8 µM, the GI50 (CAKI-1 renal) was 4.11 µM and the TGI (CAKI-1 renal) was greater than 18.8 µM. For the same compound, the GI50 (COLO 205 colon) was greater than 18.8 µM, the TGI (COLO 205 colon) was greater than 18.8 µM and the GI50 (SK-MEL-5 melanoma) was greater than 18.8 µM. It also gave a TGI (SK-MEL-5 melanoma) greater than 18.8 µM, a GI50 (SF-539 CNS) greater than 18.8 µM and a TGI (SF-539 CNS) greater than 18.8 µM. For the same compound, the GI50 (NCI-H23 lung) was 17.3 µM, the TGI (NCI-H23 lung) was greater than 18.8 µM and the GI50 (UACC-257 melanoma) was 8.85 µM. The TGI (UACC-257 melanoma) was greater than 18.8 µM, the GI50 (HCC-2998 colon) was 6.18 µM and the TGI (HCC-2998 colon) was greater than 18.8 µM. The GI50 (BT-549 breast) was greater than 18.8 µM, the TGI (BT-549 breast) was greater than 18.8 µM and the GI50 (HS 578T breast) was greater than 18.8 µM. It also gave a TGI (HS 578T breast) greater than 18.8 µM, a GI50 (RPMI-8226 leukemia) of 10.6 µM and a TGI (RPMI-8226 leukemia) greater than 18.8 µM. The GI50 (ACHN renal) was 8.05 µM, the TGI (ACHN renal) was greater than 18.8 µM and the GI50 (NCI-H522 lung) was 8.03 µM. The TGI (NCI-H522 lung) was greater than 18.8 µM, the GI50 (HL-60(TB) leukemia) was 12.8 µM and the TGI (HL-60(TB) leukemia) was greater than 18.8 µM. For the same compound, the GI50 (MALME-3M melanoma) was greater than 18.8 µM, the TGI (MALME-3M melanoma) was greater than 18.8 µM and the GI50 (MDA-MB-468 breast) was 4.84 µM. For the same compound, the TGI (MDA-MB-468 breast) was greater than 18.8 µM, the GI50 (SW-620 colon) was 13.4 µM and the TGI (SW-620 colon) was greater than 18.8 µM. It also gave a GI50 (786-0 renal) greater than 18.8 µM, a TGI (786-0 renal) greater than 18.8 µM and a GI50 (MOLT-4 leukemia) of 5.36 µM. It also gave a TGI (MOLT-4 leukemia) greater than 18.8 µM, a GI50 (EKVX NSCLC) of 18.6 µM and a TGI (EKVX NSCLC) greater than 18.8 µM. For the same compound, the GI50 (OVCAR-5 ovarian) was greater than 18.8 µM, the TGI (OVCAR-5 ovarian) was greater than 18.8 µM and the GI50 (U251 CNS) was greater than 18.8 µM. For the same compound, the TGI (U251 CNS) was greater than 18.8 µM, the GI50 (HOP-62 NSCLC) was greater than 18.8 µM and the TGI (HOP-62 NSCLC) was greater than 18.8 µM. For the same compound, the GI50 (HCT-116 colon) was 7.48 µM, the TGI (HCT-116 colon) was greater than 18.8 µM and the GI50 (MDA-MB-231 breast) was 15 µM. It also gave a TGI (MDA-MB-231 breast) greater than 18.8 µM, a GI50 (SF-268 CNS) of 10.5 µM and a TGI (SF-268 CNS) greater than 18.8 µM. It also gave a GI50 (SR leukemia) of 5.28 µM, a TGI (SR leukemia) greater than 18.8 µM and a GI50 (NCI-H460 lung) of 7.56 µM. The TGI (NCI-H460 lung) was greater than 18.8 µM, the GI50 (RXF 393 renal) was 16.2 µM and the TGI (RXF 393 renal) was greater than 18.8 µM. It also gave a GI50 (MCF7 breast) of 6.01 µM, a TGI (MCF7 breast) greater than 18.8 µM and a GI50 (HCT-15 colon) of 13.8 µM. For the same compound, the TGI (HCT-15 colon) was greater than 18.8 µM, the GI50 (HOP-92 NSCLC) was 13 µM and the TGI (HOP-92 NSCLC) was greater than 18.8 µM. The GI50 (A549 NSCLC) was 8.86 µM, the TGI (A549 NSCLC) was greater than 18.8 µM and the GI50 (UACC-62 melanoma) was 3.93 µM. It also gave a TGI (UACC-62 melanoma) greater than 18.8 µM, a GI50 (SK-OV-3 ovarian) greater than 18.8 µM and a TGI (SK-OV-3 ovarian) greater than 18.8 µM. For the same compound, the GI50 (KM12 colon) was 9.75 µM, the TGI (KM12 colon) was greater than 18.8 µM and the GI50 (OVCAR-4 ovarian) was greater than 18.8 µM. For the same compound, the TGI (OVCAR-4 ovarian) was greater than 18.8 µM, the GI50 (TK-10 renal) was greater than 18.8 µM and the TGI (TK-10 renal) was greater than 18.8 µM. It also gave a GI50 (SF-295 CNS) of 7.53 µM, a TGI (SF-295 CNS) greater than 18.8 µM and a GI50 (K-562 leukemia) of 6.2 µM. It also gave a TGI (K-562 leukemia) greater than 18.8 µM, a GI50 (M14 melanoma) of 12.3 µM and a TGI (M14 melanoma) greater than 18.8 µM. The GI50 (DU-145 prostate) was greater than 18.8 µM, the TGI (DU-145 prostate) was greater than 18.8 µM and the GI50 (NCI/ADR-RES ovarian) was greater than 18.8 µM. The TGI (NCI/ADR-RES ovarian) was greater than 18.8 µM, the GI50 (T-47D breast) was 7.73 µM and the TGI (T-47D breast) was greater than 18.8 µM. For the same compound, the GI50 (A498 renal) was greater than 18.8 µM, the TGI (A498 renal) was greater than 18.8 µM and the GI50 (SNB-19 CNS) was greater than 18.8 µM. For the same compound, the TGI (SNB-19 CNS) was greater than 18.8 µM, the GI50 (SNB-75 CNS) was 2840 nM and the TGI (SNB-75 CNS) was greater than 18.8 µM. It also gave a GI50 (IGROV1 ovarian) of 7.98 µM, a TGI (IGROV1 ovarian) greater than 18.8 µM and a GI50 (NCI-H226 lung) greater than 18.8 µM. The TGI (NCI-H226 lung) was greater than 18.8 µM, the GI50 (UO-31 renal) was 5.3 µM and the TGI (UO-31 renal) was greater than 18.8 µM. The GI50 (SN12C renal) was 13.8 µM, the TGI (SN12C renal) was greater than 18.8 µM and the GI50 (HT29 colon) was 14.4 µM. It also gave a TGI (HT29 colon) greater than 18.8 µM, a GI50 (SK-MEL-28 melanoma) greater than 18.8 µM and a TGI (SK-MEL-28 melanoma) greater than 18.8 µM. It also gave a GI50 (CCRF-CEM leukemia) of 11.4 µM, a TGI (CCRF-CEM leukemia) greater than 18.8 µM and a GI50 (OVCAR-8 ovarian) of 18.3 µM. The TGI (OVCAR-8 ovarian) was greater than 18.8 µM.
